The values that follow come from US7419984B2, “Pyrimidines and uses thereof” (Cell Therapeutics, Inc., priority 2002, dated 2008).

The target of the experiment is T1, human LPAAT-β (Homo sapiens, UniProt O15120).
T1 construct: the full-length human LPAAT-β cDNA was amplified by PCR; poly-histidine tag (N); made in house; host or cells: Sf9 insect cells (baculovirus, pFastBac HTc); the membrane fraction was used as the enzyme
T1 sequence (O15120 24-278): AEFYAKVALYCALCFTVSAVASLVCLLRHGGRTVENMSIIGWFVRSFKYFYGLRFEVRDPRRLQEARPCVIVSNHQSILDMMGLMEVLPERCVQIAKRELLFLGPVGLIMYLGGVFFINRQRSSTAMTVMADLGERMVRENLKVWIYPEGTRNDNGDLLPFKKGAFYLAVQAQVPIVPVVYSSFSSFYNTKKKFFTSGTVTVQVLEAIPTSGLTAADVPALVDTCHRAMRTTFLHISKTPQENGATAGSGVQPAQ
Put plainly: LPAAT-β cell-free assay. It is filed as biochemical. To be noted: Sf9 cell membrane overexpressing recombinant LPAAT-β. An excerpt:
For the construction of Baculovirus expression vectors, the full-length human LPAAT-β cDNA was amplified by PCR from the DNA template pCE9.LPAAT-β (West et al., DNA Cell Bid. 16.691-701 (1997)) using the primers 5′-[…] […] […] […]-3′ (olpb1F; SEQ ID NO:1) and 5′-[…] […] […]-3′ (olpb1R; SEQ ID NO:2). The ˜870 bp fragment generated was reamplified by PCR using the primers 5′ […] […] […] […] ATC-3′ (olpb2F; SEQ ID NO:3) and 5′-[…] […] […]-3′ (olpb1R; SEQ ID NO:2). The ˜890 bp fragment generated was then cleaved with Sal I and Xba I for insertion into pFastBac™ HTc vector (Life Technologies, Gaithersberg, M.d.) between the Sal I and Xba I sites for the generation of the plasmid pFB.LPAAT-β. This plasmid was then transformed into E. coli DH10Bac™ (Life Technologies, Gaithersberg, M.d.) for the generation of recombinant Bacmid DNA for transfection in HighFive (Invitrogen, San Diego, Calif.) or SF9 insect cells for the production of recombinant Baculovirus stocks using the protocol described in the Bac-to-Bac® Baculovirus Expression System (Life Technologies, Gaithersberg, M.d.), a eukaryotic expression system for generating recombinant baculovirus through site-specific transposition in E. coli. Viral stocks harvested from the transfected cells can then be used to infect fresh insect cells for the subsequence expression of LPAAT-β fusion protein with a poly-histidine tag and a myc-epitope near its N-terminus. The membrane fraction from these Sf9 cells would be the source of LPAAT enzyme.
For the preparation of membranes from Sf9 Cells, all steps are performed on ice or at 4° C. Sf9 cell pellets (˜10^8 cells) were thawed and resuspended in 1-2 ml of buffer A (20 mM Hepes, pH 7.5, 1 mM DTT, 1 mM EDTA, 20% w/v glycerol, 1 mM Benzamidine, 1 μg/ml soybean trypsin inhibitor (SBTI), 1 μug/ml pepstatin A) w/o DTT but with 1 mM Pefabloc. The cells were lysed by sonication using a Branson Sonifier at output=2, duty cycle=2, 10 pulses each at 10 s. with the tip of small sonicator probe submerged but not touching the walls. DTT was then added to 1 mM from a 1 M stock. The samples were centrifuged at 1500 rpm for 5 min. The low speed supernatant was saved and centrifuged (TLA 100.3 rotor, polycarbonate tubes, 2 ml/tube or 1.5 ml/tube minimum) at 100000×g for 1 hr. The high speed pellet was resuspend in Buffer A with a probe sonicator (10 pulses @ output #2 and duty cycle 20%) as a source of LPAAT enzyme.
LPAAT-β catalyzes the transfer of an acyl group from a donor such as acyl-CoA to LPA. The transfer of the acyl group from acyl-CoA to LPA leads to the release of free CoA, which can be reacted with the thiol reagent, 5,5′-dithiobis(2-nitrobenzoic acid) (DTNB). The reaction between DTNB and the free sulfhydryl group from CoA generates a yellow-colored product, 3-carboxylato-4-nitrothiophenolate (CNP), that absorbs at 413 nm. LPAAT-β derived from Sf9 cell membrane overexpressing LPAAT-β were resuspended in HEPES saline buffer (20 mM HEPES pH 7.5, 150 mM NaCl), 1 mg/ml BSA and 72 μl aliquots were distributed into 96-well microtiter plates. 8 μl of compound of interest at 200 μM dissolved in 100% DMSO was added into each well. […] of 1 mM 18:1-CoA and 1 mM sn-1-18:1 lysoPA was then added to each well to initiate the reaction and allowed to run at room temperature for 25 min. 100 μl of 1 mM DTNB in 100% ethanol was then added to each well to quench the reaction and for color development. The absorbance at 405 nm, measured using a spectrophotometer plate reader, is proportional to the activity of LPAAT-2 in the sample. This colorimetric assay was used for the high throughput screening of LPAAT inhibitors.
The radiometric assay was carried out in Sf9 cell membrane overexpressing LPAAT-β resuspended in HEPES-saline buffer, pH 7.5, 1 mg/ml BSA, 1 mM EDTA and 200 μM [^14C]18:1-CoA and 200 μM sn-1-18:1 lysoPA.

In the case of `Cc1ccc(Br)cc1-c1cc(Nc2ccc(CCO)cc2)nc(N)n1` [Example 100, 2-{4-[2-Amino-6-(5-bromo-2-methyl-phenyl)-pyrimidin-4-ylamino]-phenyl}-ethanol], the IC50 is 49 nM. For `Cc1ccc(C)c(-c2cc(Nc3ccc(CCO)cc3)nc(N)n2)c1` [Example 74, 2-{4-[2-Amino-6-(2,5-dimethyl-phenyl)-pyrimidin-4-ylamino]-phenyl}-ethanol] the value was 550 nM; for `Nc1nc(Nc2ccc3cn[nH]c3c2)cc(-c2cc(Cl)ccc2Cl)n1` [Example 19, 6-(2,5-Dichloro-phenyl)-N*4*-(1H-indazol-6-yl)-pyrimidine-2,4-diamine], 27 nM. Consider `CCOc1ccc(Cl)cc1-c1cc(Nc2ccc(-c3cnco3)cc2)nc(N)n1` [Example 66, 6-(5-Chloro-2-ethoxy-phenyl)-N*4*-(4-oxazol-5-yl-phenyl)-pyrimidine-2,4-diamine], for which the half-inhibitory concentration (IC50) amounted to 450 nM. For `COc1ccc(Cl)cc1-c1cc(Nc2ccc(C)cc2)nc(N)n1` [Example 1, 6-(5-Chloro-2-methoxy-phenyl)-N*4*-p-tolyl-pyrimidine-2,4-diamine] the value was 120 nM; for `Nc1nc(Nc2ccc(Br)cc2)cc(-c2cc(Cl)cc(Cl)c2Cl)n1` [Example 99, N*4*-(4-Bromo-phenyl)-6-(2,3,5-trichloro-phenyl)-pyrimidine-2,4-diamine], 130 nM; for `Cc1nc(Nc2ccc(Cl)cc2)cc(-c2cc(Cl)ccc2C)n1` [Example 42, [6-(5-Chloro-2-methyl-phenyl)-2-methyl-pyrimidin-4-yl]-(4-chloro-phenyl)-amine], 10 nM. The figure for `CCOc1ccc(Br)cc1-c1cc(Nc2ccc(CCO)cc2)nc(N)n1` [Example 70, 2-{4-[2-Amino-6-(5-bromo-2-ethoxy-phenyl)-pyrimidin-4-ylamino]-phenyl}-ethanol] is 29 nM; for `CCOc1ccc(Cl)cc1-c1cc(Nc2ccc(S(C)(=O)=O)cc2)nc(N)n1` [Example 124, 6-(5-chloro-2-ethoxyphenyl)-N*4*-(4-methanesulfonylphenyl)pyrimidine-2,4-diamine] it is 110 nM; for `Nc1nc(Nc2ccc(Cl)cc2)cc(-c2cc(Br)ccc2Cl)n1` [Example 187, 6-(5-Bromo-2-chloro-phenyl)-N*4*-(4-chloro-phenyl)-pyrimidine-2,4-diamine] it is 22 nM.

`Cc1ccc(Cl)cc1-c1cc(Nc2ccc(C(F)(F)F)cc2)nc(N)n1` [Example 29, 6-(5-Chloro-2-methyl-phenyl)-N*4*-(4-trifluoromethyl-phenyl)-pyrimidine-2,4-diamine]: the IC50 was determined as 134 nM. The figure for `Cc1ccc(Cl)cc1-c1cc(Nc2ccc(F)cc2)nc(N)n1` [Example 97, 6-(5-Chloro-2-methyl-phenyl)-N*4*-(4-fluoro-phenyl)-pyrimidine-2,4-diamine] is 73 nM; for `COc1ccc(Br)cc1-c1cc(Nc2ccc(Br)cc2)nc(N)n1` [Example 162, 6-(5-Bromo-2-methoxy-phenyl)-N*4*-(4-bromo-phenyl)-pyrimidine-2,4-diamine] it is 36 nM; for `CCOc1ccc(Cl)cc1-c1cc(Nc2ccc(OC)cc2)nc(N)n1` [Example 58, 6-(5-Chloro-2-ethoxy-phenyl)-N*4*-(4-methoxy-phenyl)-pyrimidine-2,4-diamine] it is 200 nM. As for `Cc1ccc(Br)cc1-c1cc(Nc2ccc(Br)cc2)nc(N)n1` [Example 85, 6-(5-Bromo-2-methyl-phenyl)-N*4*-(4-bromo-phenyl)-pyrimidine-2,4-diamine], the IC50 came out at 18 nM. Consider `Cc1ccc(Cl)cc1-c1cc(Nc2ccc(C(F)(F)F)nc2)nc(N)n1` [Example 126, 6-(5-chloro-2-methylphenyl)-N*4*-(6-trifluoromethylpyridin-3-yl)pyrimidine-2,4-diamine], for which the IC50 stood at 500 nM. Regarding `Cc1ccc(Cl)cc1-c1cc(Nc2ccc(Cl)c(CO)c2)nc(N)n1` [Example 113, {5-[2-Amino-6-(5-chloro-2-methyl-phenyl)-pyrimidin-4-ylamino]-2-chloro-phenyl}-methanol], the IC50 was determined as 190 nM.

By IC50 is commonly meant the point on the concentration scale where inhibition reaches its midpoint.
